# Test results from patent US20120108947A1, “METHOD FOR PREDICTING WEIGHT GAIN ASSOCIATED WITH A PHARMACEUTICAL THERAPY” (priority 2009, published 2012).
# Conditions: in vivo
# Experimental: TRL V1, V2, V3, V4, V5 and V6 responses and VLDL size response are measured during each visit along with increases in weight. […] The relationship of the change in TRL V6 to the change in weight is analyzed using a mixed effects model analysis.
smiles,measurement,value
"Cc1cc2c(s1)Nc1ccccc1N=C2N1CCN(C)CC1 [olanzapine, 2-methyl-4-(4-methyl-1-piperazinyl)-10H-thieno[2,3-b][1,5]benzodiazepine]",magnitude of the TRL V6 response and VLDL size response in comparison to pre-dose concentration,increases
